Assay results from US20230331707A1, “PROGRAMMED CELL NECROSIS INHIBITOR, PREPARATION METHOD THEREFOR, AND USE THEREOF” (Shanghai Institute of Organic Chemistry, Chinese Academy of …, priority 2020, published 2023).
Read-outs that look alike come from different tables or passages of the source.

Test system: L929 cells
Assay: Inhibition of TNF-induced programmed necrosis of L929 cells (Cell Titer-Glo viability)
Format: cell-based, mouse
Outline: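 Mouse L929 fibroblasts were diluted to 6.25×10^4/ml, plated at 40 μl per well in 384-well plates, and incubated 12 hours at 37° C., 5% CO2. Compounds were added, with SM164 (500 nM) for the combination arm, and pretreated 1 h before TNFα (500 ng/mL). After 14 h, viability was read by Cell Titer-Glo luminescence against unstimulated DMSO controls, and EC50 values were fitted in Prism Graphpad.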

For `Cn1ncc(C(=O)NCc2ccc(-n3cnc4c(N)ncnc43)cc2)c1Cc1ccccc1` [QY-10-40], the “concentration that essentially completely inhibits TNFα-induced programmed necrosis” value (L929 cells) was “above 1 nM”, the EC50 (L929 cells, stimulated with TNFα + SM164, read-out: EC50 (μM) L929 cells (mouse) TNFα + SM164) was 0.00145 µM and the EC50 (L929 cells, stimulated with TNFα alone, read-out: EC50 (μM) L929 cells (mouse) TNFα) was 0.00048 µM. For the same compound, the “inhibition of programmed necrosis (in words)” value (mouse-derived L929 cells) was “excellently inhibit the occurrence of programmed necrosis”.
